We go through twelve compounds from patent publication US20260159519A1, “IMIDAZOPYRIDAZINE SUBSTITUTED BENZENE RING DERIVATIVE, PREPARATION METHOD, PHARMACEUTICAL COMPOSITION AND USE” (SHANGHAI SIMR BIOTECHNOLOGY CO., LTD., priority 2022, published 2026).

Structures are written as SMILES. pKi: −log10 of the molar value. Like-named read-outs stand apart in the source and are kept apart here.

The target of data set [1] is T1, human α1-GABAA receptor (α1-GABAAR-HEK293 cells) (Homo sapiens, UniProt P14867+P18507).
T1 construct: expressed in transfected cells
The data set can be described thus: Whole-cell patch-clamp electrophysiology, positive allosteric modulatory activity on α1-GABAA receptor. Conditions: read-out: α1-GABAA positive allosteric modulatory activity. The data set is classed as cell-based. A general note: Patch clamp records ionic current or voltage across a cell membrane.

In data set [2] the target is T2, human α2-GABAA receptor (α2-GABAAR-HEK293 cells) (Homo sapiens, UniProt P18507+P47869).
T2 construct: expressed in transfected cells
The data set is described as follows: Whole-cell patch-clamp electrophysiology, positive allosteric modulatory activity on α2-GABAA receptor. Conditions: read-out: α2-GABAA positive allosteric modulatory activity. Format: cell-based.

Data set [3] has as its system Chinese hamster ovary cells (CHO-WBL cells). The data set is described as follows: In vitro micronucleus assay. The data set is classed as cell-based. As to conditions: 3-hour treatment with S9, 3-hour and 24-hour treatment without S9; overall judgment. An excerpt: The experimental design is based on the experimental purpose and follows the following experimental design guidelines: • (1) OECD Guidelines for the Testing of Chemicals 487, In Vitro Mammalian Cell Micronucleus Test, revised in 2016; • (2) ICH S2 (R1): Guideline on Genotoxicity Testing and Data Interpretation for Pharmaceuticals Intended for Human Use, validated in November 2011.
Experimental system and selection rationale: Chinese hamster ovary cells (CHO-WBL cells) were used as an experimental system in this experiment. The cell line has a karyotype containing 21 chromosomes and a growth cycle of 12 to 13 hours. CHO-WBL cells were originally derived from Dr. S. Wolff at the University of California in San Francisco, USA, then cloned in the laboratory of Dr. A. Bloom at Columbia University in New York, and cloned again by Dr. S. Galloway at Litton Bionetics Laboratory in Maryland. The cell stock solution was stored in liquid nitrogen. The karyotype of each batch of cell stock solution was identified, and tests confirmed that it was free from mycoplasma contamination. The number of passages after cell cloning will not exceed 15. Chinese hamster ovary cells were chosen because the cell line is recommended for use in OECD Guidelines for the Testing of Chemicals 487 and has been proven to be sensitive to a variety of clastogens/aneugens (Marilyn J. et al., 2006).
Medium and cell growth conditions: Chinese hamster ovary cells were cultured in McCoy's 5A complete medium (McCoy's 5A complete medium supplemented with 10 vt % fetal bovine serum, 2 mM GlutaMAX™ medium, 100 units/mL penicillin, and 100 μg/mL streptomycin), and grown in a standard environment (a high-humidity incubator with a temperature of 37° C. and a CO2 concentration of 5%). The day before administration, CHO-WBL cells in exponential growth phase were inoculated onto an eight-well cell culture slide at a density of 8×10^3 cells/400 μL McCoy's 5A complete medium/well.
Metabolic activation system: The in vitro metabolic activation system (Maron and Ames, 1983) contains a rat liver microsomal homogenate induced by β-naphthoflavone and phenobarbital (referred to as S9) and an NADPH-generating system (i.e., NADP disodium and isocitric acid trisodium). S9 was purchased from CHI Scientific, Inc. and stored in a −75° C. refrigerator prior to use. Preparation method for S9 homogenate: Male Sprague Dawley rats were intraperitoneally injected with a single dose of p-naphthoflavone and phenobarbital, followed by material preparation.
Preparation of S9 metabolic activation system: NADP disodium salt and isocitric acid trisodium salt were first dissolved in serum-free medium to prepare a core solution, which was then filtered through a 0.22 µm filter to sterilize. Immediately before use, the S9 homogenate was thawed, and the components of the S9 metabolic activation system were mixed in the proportions shown in Table 2 below.
Dose exploration experiment: In the dose exploration experiment, 8 administration concentrations were established in each administration treatment series. For each concentration of the test substance, 1 well of cells was set up. According to the ICH S2 (R1) guidelines, when not limited by the solubility of the test substance in the solvent/medium or the cytotoxicity of the test substance, the recommended maximum concentration is 1 mM or 0.5 mg/mL, whichever is lower. However, when limited by solubility, the test maximum concentration is the minimum concentration at which a small amount of precipitate is visible in the medium under the microscope. To ensure that the upper limit of solubility in the medium can be reached, up to 4 concentrations with visible precipitate can be tested.

The target in data set [4] is T3, human α2-GABAA receptor (BZD site, membrane protein of HEK293 cells) (Homo sapiens, UniProt P18507+P47869).
T3 construct: expressed in transfected cells
The data set is described as follows: Radioligand competitive binding assay (3H-flunitrazepam) at the BZD site of the α2-GABAA receptor.

[5] abbreviates: competition with 1 nM 3H-flunitrazepam; Ki calculated from IC50; read-out: α2 Ki.

Consider `CCn1cnc2c(-c3ccc(F)c(-c4ccc(S(=O)(=O)CC)cc4OC)c3)cnnc21` [CVL-865, reference compound], for which the activation at 0.1 µM in data set [1] and in data set [2] was 100% in each case. In addition, the “Results of in vitro micronucleus assay” value in data set [3] is reported as “Positive”.

A word on the pKi: it is the Ki on a negative log10 scale, so that one unit is a factor of ten. Consider `CCn1cnc2c(-c3ccc(F)c(-c4cc5oc(=O)n(CC6CC6)c5cc4OC)c3)cnnc21` [Example 34, 3-(Cyclopropylmethyl)-6-(5-(7-ethyl-7H-imidazo[4,5-c]pyridazin-4-yl)-2-fluorophenyl)-5-methoxybenzo[d]oxazol-2(3H)-one], for which the activation at 0.1 µM in data set [1] was determined as 70%; in data set [2] it was 124%. Moreover, in data set [4] (setting [5]), the pKi was 8.24.

On to `CCn1cc2cc(-c3cc(-c4cnnc5c4ncn5CC)ccc3F)c(OC)cc2n1` [Example 130, 7-Ethyl-4-(3-(2-ethyl-6-methoxy-2H-indazol-5-yl)-4-fluorophenyl)-7H-imidazo[4,5-c]pyridazine], for which the activation at 0.1 µM in data set [1] was found to be 36%; in data set [2] it was 139%. Moreover, the pKi in data set [4] (setting [5]) was 8.32.

Turning to `CCn1cnc2c(OC)c(-c3cc(-c4cnnc5c4ncn5CC)ccc3F)ccc21` [Example 119, 7-Ethyl-4-(3-(1-ethyl-4-methoxy-1H-benzo[d]imidazol-5-yl)-4-fluorophenyl)-7H-imidazo[4,5-c]pyridazine], the values for the activation at 0.1 µM in data set [1] and in data set [2] were -10% and 86%, respectively. Besides, the pKi in data set [4] (setting [5]) is 7.81.

As for `CCn1cnc2c(-c3ccc(F)c(-c4cc5sc(=O)n(C)c5cc4OC)c3)cnnc21` [Example 53, 6-(5-(7-Ethyl-7H-imidazo[4,5-c]pyridazin-4-yl)-2-fluorophenyl)-5-methoxy-3-methylbenzo[d]thiazol-2(3H)-one], the activation at 0.1 µM in data set [1] was 21%; in data set [2], 94%. In addition, in data set [4] (setting [5]), the pKi is 8.42.

Turning to `CCn1cnc2c(-c3ccc(F)c(-c4ccc5c(nnn5C5CCOC5)c4COC)c3)cnnc21` (stereo not drawn) [Example 157, 7-Ethyl-4-(4-fluoro-3-(4-(methoxymethyl)-1-(tetrahydrofuran-3-yl)-1H-benzo[d][1,2,3]triazol-5-yl)phenyl)-7H-imidazo[4,5-c]pyridazine], the values for the activation at 0.1 µM in data set [1] and in data set [2] were 50% and 99%, respectively. For the same compound, in data set [4] (setting [5]), the pKi is 7.63.

Regarding `CCn1cnc2c(-c3ccc(F)c(-c4ccc5c(nnn5C5CC5)c4OC)c3)cnnc21` [Example 70, 4-(3-(1-Cyclopropyl-4-methoxy-1H-benzo[d][1,2,3]triazol-5-yl)-4-fluorophenyl)-7-ethyl-7H-imidazo[4,5-c]pyridazine], the activation at 0.1 µM in data set [1] is -27%; in data set [2] it was 90%. In data set [4] (setting [5]), the pKi was 9.30.

On to `CCn1cnc2c(-c3ccc(F)c(-c4ccc5c(nnn5C)c4OC)c3)cnnc21` [Example 81, 7-Ethyl-4-(4-fluoro-3-(4-methoxy-1-methyl-1H-benzo[d][1,2,3]triazol-5-yl)phenyl)-7H-imidazo[4,5-c]pyridazine], for which the activation at 0.1 µM was -25% in data set [1] and 83% in data set [2]. Moreover, the pKi in data set [4] (setting [5]) was 8.63.

Consider `CCn1cnc2c(-c3ccc(F)c(-c4ccc5c(nnn5CC)c4COC)c3)cnnc21` [Example 11, 7-Ethyl-4-(3-(1-ethyl-4-(methoxymethyl)-1H-benzo[d][1,2,3]triazol-5-yl)-4-fluorophenyl)-7H-imidazo[4,5-c]pyridazine], for which the activation at 0.1 µM is 75% in data set [1] and 97% in data set [2]. Further, the negative logarithm of the Ki (pKi) in data set [4] (setting [5]) was 7.78.

As to `CCn1cnc2c(-c3ccc(F)c(-c4cc5ccc(=O)n(C)c5cc4OC)c3)cnnc21` [Example 55, 6-(5-(7-Ethyl-7H-imidazo[4,5-c]pyridazin-4-yl)-2-fluorophenyl)-7-methoxy-1-methylquinolin-2(1H)-one], the activation at 0.1 µM worked out at 21% in data set [1] and 81% in data set [2]. Also, the pKi in data set [4] (setting [5]) was 8.61.

Regarding `CCn1cnc2c(-c3ccc(F)c(-c4cc5c(cc4OC)N(CCN4CCOCC4)C(=O)CO5)c3)cnnc21` [Example 18, 7-(5-(7-Ethyl-7H-imidazo[4,5-c]pyridazin-4-yl)-2-fluorophenyl)-6-methoxy-4-(2-morpholinoethyl)-2H-benzo[b][1,4]oxazin-3(4H)-one], the activation at 0.1 µM in data set [1] amounted to 30%; in data set [2], 106%. Further, the negative-log Ki (pKi) in data set [4] (read-out: α2 Ki; competition with 1 nM 3H-flunitrazepam; Ki calculated from IC50) was 7.86.

Take `CCn1cnc2c(-c3ccc(F)c(-c4cc5cn(C(F)F)nc5cc4OC)c3)cnnc21` [Example 111, 4-(3-(2-(Difluoromethyl)-6-methoxy-2H-indazol-5-yl)-4-fluorophenyl)-7-ethyl-7H-imidazo[4,5-c]pyridazine]: the values for the activation at 0.1 µM in data set [1] and in data set [2] were 64% and 102%, respectively. Besides, in data set [4] (setting [5]), the pKi was 8.47.
